{
  "source": "patent US6379670B1",
  "about": "“Methods for treatment of multiple sclerosis using peptide analogs of human myelin basic protein” (Neurocrine Biosciences, Inc., priority 1994, dated 2002)",
  "key": {"[1]": {"system": "Dr2b restricted human T cell clones reactive to MBP", "assay": "Human T cell proliferation, Dr2b restricted clones", "assay_type": "cell-based", "protocol": "Human T cells reactive to MBP (83-99) may alternatively be used to measure the ability of the peptide analog to inhibit proliferation of T cells induced by native MBP (83-99) peptide. MBP-specific T cells may be obtained as previously described by Martin et al., J. Immunol. 148:1359-1366, 1992. Briefly, T cell lines are established by culture of human T cells with irradiated, DR-matched peripheral blood cells in MEM supplemented with 2 mM L-glutamine, 50 μg/ml gentamicin, penicillin and streptomycin, 100 U/ml rIL-2, and 10% human AB negative serum. Proliferation of these T cell lines is stimulated by culturing a clone with varying concentration (1.1-30 μM) of native […] peptide, 50 μM of the peptide analog or SWM peptide, in the presence of irradiated, DR matched peripheral blood cells, following incubation for approximately 60 hours, the cells are pulsed with ^3H-thymidine for 12 hours and harvested. The amount of incorporated ^3H-thymidine is measured.\nThe ability of the peptide analogs NBI-5719, 5748, 5765, 5788 and 5789 (SEQ ID NOs: 4-8 respectively) to affect human T cell proliferation was assessed. A constant amount of peptide analog or the control peptide SWM (50 μM) was cultured with varying concentrations of native MBP(83-99) peptide (1.1-30 μM) in the presence of irradiated, DR matched peripheral blood cells and T cell clones derived from various MS patients. Human T cells (1×10^6) were cultured with DR matched, irradiated peripheral blood cells (PBL, 5×10^6) in medium containing IMDM supplemented with 3 μM MBP83-99, 2 mM L-glutamine, 50 μg/ml gentamicin penicillin/streptomycin, 100 U/ml r1L-2 and 10% human AB-negative serum. Cells were cultured for approximately 60 hours, pulsed with tritiated thymidine for 12 hours, and harvested. The amount of tritiated thymidine incorporated was measured, and the data represented as the mean plus or minus the standard error of the mean of replicate samples.\nThe ability of the peptide analog to inhibit the proliferative response of MBP-reactive T cells isolated from Dr2b (DrB1* 1501) individuals was determined. A constant amount of NBI-5788 (50 μM) was cultured with varying concentrations of native peptide (1.1-30 μM) in the presence of irradiated, DR matched peripheral blood cells and T cell clones derived from various MS patients."}, "[2]": {"system": "peripheral blood cells of MS patients", "assay": "Frequency of APL-responsive peripheral blood T cells after dosing of MS patients (split-well)", "assay_type": "in vivo, human", "protocol": "Patients received either 10 or 20 mg of APL NBI-5788 (weekly for four weeks). Peripheral blood cells were collected from four patients approximately one year after dosing, as well as from 14 MS patients who had not received the APL and from two normal, healthy volunteers. The frequency of response to the peptide was determined using the split-well technique. Cells were seeded in 48 wells/plate, as well as 12 control wells without antigenic stimulation, at a density of 1×10^5 cells/well. Cells were set up in IMDM+10% human plasma pool+penicillin/streptomycin 100 U/ml+gentamycin 50 μg/ml +2 mM L-glutamine (or complete media, CM). Peptide antigen (25 μg) was added and then included for no more than one feeding with media. At day 12, the medium was changed to CM without IL-2. Two days later, the split-wells were established. The wells were resuspended with a multichannel pipetor, 100 μl of the cell suspension was transferred to adjacent wells on a new plate (daughter plate) and mixed with 100 μl of media containing 1×10^5 antigen presenting cells (peripheral blood lymphocytes, PBL irradiated with 3000 R in CM with or without antigen; 25 μg/ml). After 48 hours of culturing, 100 μl of supernatant was removed from the daughter plate for later cytokine determination and stored at -70° C.\nFor the proliferation assay, ^3H-thymidine (0.5 μCi) was added to the daughter plate and the plates reincubated for an additional 8 hours. The wells were then harvested onto filter mats and the level of ^3H-thymidine incorporation determined using beta scintillation. Counts greater than three-fold over background were considered positive."}, "[3]": {"system": "peripheral blood mononuclear cells", "assay": "Frequency of antigen-reactive T cells in PBMC of untreated MS patients and healthy donors (split-well)", "assay_type": "cell-based, human", "set-up": "mean frequency of antigen-reactive T cells / frequency of antigen-reactive T cells in healthy subjects / antigen-reactive T cells, % Positive: concentration or dose not given beside the values", "protocol": "Immune response to the peptide analog was assessed by measuring the frequency of proliferating peripheral blood T cells using a split-well microtiter method (i.e., number of positive wells {Δ cpm >1000, stimulation index>3} divided by the total number of wells assayed). Peripheral blood mononuclear cells (PBMC) were isolated from venous blood by Ficoll-Hypaque density gradient centrifugation, washed twice and resuspended in complete tissue culture medium (Iscove's modification of Dulbecco's medium containing 10% heat-inactivated, pooled, human A-B serum, 2 mM L-glutamine, 100 U/ml penicillin/streptomycin and 50 μg/ml gentamycin). PBMC from each patient were seeded at 10^5/well in 96 well, U-bottom microtiter plates containing 25 μg/ml whole MBP, 10 μg/ml NBI-5788 or medium alone in a volume of 200 μl. Three days later supernatants were collected and frozen at −80° C. and fresh medium containing IL-2 (10 U/ml) was added. IL-2-containg medium was refreshed on Day 7 and Day 11. On Day 14, the frequency of antigen response was determined by the “split well” technique. Briefly, cells from one primary well were split into replicate experimental wells in the presence of 10^5 freshly isolated autologous, irradiated peripheral blood mononuclear cells (APCs): one containing the original antigen (25 μg/ml) and one without antigen. Two days later supernatants were collected and the wells pulsed with 1 µCi/well [^3H]-thymidine ([…]) for the final 18 hours of culture. ^3H-Thymidine uptake was measured in a beta counter. […] The association between T cell frequency and NBI-5788 treatment was evaluated by χ^2 contingency analysis."}, "[4]": {"conditions": "subject MS-2, untreated MS patient"}, "[5]": {"conditions": "subject MS-3, untreated MS patient"}, "[6]": {"conditions": "subject MS-7, untreated MS patient"}, "[7]": {"conditions": "subject MS-8, untreated MS patient"}, "[8]": {"conditions": "subject MS-9, untreated MS patient"}, "[9]": {"conditions": "subject MS-10, untreated MS patient"}, "[10]": {"conditions": "subject MS-11, untreated MS patient"}},
  "note": "Values joined by “and” are separate entries in the source; they are usually repeats but may differ in a detail not shown here. Equal entries are not always repeated. Non-standard residues stand in square brackets, D forms with d. No end group written: not given here.",
  "data": [
    {"substance": "MBP(83-99) (83E>a, 84N>K, 89F>L, and 91K>A) ([dA]KPVVHLFANIVTPRTP) [NBI-5788]", "values": [
      {"measurement": "inhibition of response of Dr2b T cell clones to MBP peptide", "setting": "[1]; 50 μM, three different T cell lines, FIGS. 16-18", "value": "inhibited the ability of the T cell clones to respond to MBP peptide in a concentration dependent fashion"},
      {"measurement": "inhibition of MBP-dependent proliferation of clone 5F6", "setting": "[1]; Dr2b restricted clone 5F6, 50 μM, FIG. 19", "value": "inhibited the MBP-dependent proliferation in a concentration dependent fashion"},
      {"measurement": "Percent Reactivity (frequency of APL NBI-5788-reactive T cells)", "setting": "[2]; 10 mg (n = 1)", "value": 23, "unit": "%"},
      {"measurement": "frequency of APL responsive wells (SI>3), individual patient", "setting": "[2]; 10 mg weekly for four weeks, about one year after dosing", "value": 23, "unit": "%"},
      {"measurement": "Percent Reactivity (frequency of APL NBI-5788-reactive T cells)", "setting": "[2]; 20 mg (n = 3)", "value": "39 ± 18", "unit": "%"},
      {"measurement": "frequency of APL responsive wells (SI>3), individual patients", "setting": "[2]; 20 mg weekly for four weeks, about one year after dosing, listed as APL", "value": "11% and 32% and 72%"},
      {"measurement": "APL specific lines from treated patients cross reacting with native MBP (83-99)", "setting": "[2]; human, in vivo", "value": "6/31"},
      {"measurement": "APL specific lines from treated patients reacting with whole MBP", "setting": "[2]; human, in vivo", "value": "4/31"},
      {"measurement": "antigen-reactive T cells, Positive/total wells", "setting": "[3]; Total of healthy donors", "value": "0/96"},
      {"measurement": "antigen-reactive T cells, Positive/total wells", "setting": "[3]; Total of untreated MS patients", "value": "19/308"},
      {"measurement": "antigen-reactive T cells, % Positive", "setting": "[3]; healthy donor HD-1", "value": 0, "unit": "%"},
      {"measurement": "antigen-reactive T cells, Positive/total wells", "setting": "[3]; healthy donor HD-1", "value": "0/48"},
      {"measurement": "antigen-reactive T cells, % Positive", "setting": "[3]; healthy donor HD-2", "value": 0, "unit": "%"},
      {"measurement": "antigen-reactive T cells, Positive/total wells", "setting": "[3]; healthy donor HD-2", "value": "0/48"},
      {"measurement": "antigen-reactive T cells, % Positive", "setting": "[3]; [4]", "value": 6.8, "unit": "%"},
      {"measurement": "antigen-reactive T cells, Positive/total wells", "setting": "[3]; [4]", "value": "3/44"},
      {"measurement": "antigen-reactive T cells, % Positive", "setting": "[3]; [5]", "value": 2.3, "unit": "%"},
      {"measurement": "antigen-reactive T cells, Positive/total wells", "setting": "[3]; [5]", "value": "1/44"},
      {"measurement": "antigen-reactive T cells, % Positive", "setting": "[3]; [6]", "value": 6.8, "unit": "%"},
      {"measurement": "antigen-reactive T cells, Positive/total wells", "setting": "[3]; [6]", "value": "3/44"},
      {"measurement": "antigen-reactive T cells, % Positive", "setting": "[3]; [7]", "value": 11.4, "unit": "%"},
      {"measurement": "antigen-reactive T cells, Positive/total wells", "setting": "[3]; [7]", "value": "5/44"},
      {"measurement": "antigen-reactive T cells, % Positive", "setting": "[3]; [8]", "value": 9.1, "unit": "%"},
      {"measurement": "antigen-reactive T cells, Positive/total wells", "setting": "[3]; [8]", "value": "4/44"},
      {"measurement": "antigen-reactive T cells, % Positive", "setting": "[3]; [9]", "value": 4.5, "unit": "%"},
      {"measurement": "antigen-reactive T cells, Positive/total wells", "setting": "[3]; [9]", "value": "2/44"},
      {"measurement": "antigen-reactive T cells, % Positive", "setting": "[3]; [10]", "value": 2.3, "unit": "%"},
      {"measurement": "antigen-reactive T cells, Positive/total wells", "setting": "[3]; [10]", "value": "1/44"},
      {"measurement": "frequency of antigen-reactive T cells in healthy subjects", "setting": "[3]; two healthy subjects, MBP-reactive cells detected in one of two", "value": "no NBI-5788-reactive T cells were detected"},
      {"measurement": "mean frequency of antigen-reactive T cells", "setting": "[3]; untreated MS patients (n=7)", "value": "6.2±1.3", "unit": "%"}
    ]}
  ]
}
